≈ marks a conversion by molar mass, not a printed value.
Tested on: Escherichia coli
Experiment: minimum inhibitory concentration (MIC)
Protocol: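 Broth microdilution MIC (Sensititre BOPO7F bovine plate, CLSI methods) of 19 antimicrobials against field isolates of P. multocida, M. haemolytica, H. somni (deep nasopharyngeal swabs) and E. coli, Enterococcus spp. (rectal swabs) from weaned dairy heifers. Incubation 16-24 h at 35 C. MIC is the lowest concentration preventing visible growth. Values with <= or > lie at the tested range limits. Trimethoprim-sulfamethoxazole is given as the trimethoprim component of a 1:19 mixture.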

NC[C@@H]1O[C@H](O[C@H]2[C@@H](O)[C@H](O[C@@H]3[C@@H](O)[C@H](N)C[C@H](N)[C@H]3O[C@H]3O[C@H](CN)[C@@H](O)[C@H](O)[C@H]3N)O[C@@H]2CO)[C@H](N)[C@@H](O)[C@@H]1O [Neomycin]
Conditions | minimum inhibitory concentration [µg/mL]
isolate (source animal id): 8 | 32 (≈ 52.1 µM)
isolate (source animal id): 9 | ≤ 4
isolate (source animal id): 10 | > 32
isolate (source animal id): 11 | ≤ 4
isolate (source animal id): 12 | ≤ 4
isolate (source animal id): 13 | ≤ 4
isolate (source animal id): 14 | 32 (≈ 52.1 µM)
isolate (source animal id): 15 | ≤ 4
isolate (source animal id): 16 | ≤ 4
isolate (source animal id): 98 | ≤ 4
isolate (source animal id): 99 | ≤ 4
isolate (source animal id): 100 | ≤ 4
isolate (source animal id): 101 | ≤ 4
isolate (source animal id): 102 | ≤ 4
isolate (source animal id): 103 | ≤ 4
isolate (source animal id): 104 | ≤ 4
isolate (source animal id): 105 | ≤ 4
isolate (source animal id): 106 | > 32
isolate (source animal id): 107 | ≤ 4
isolate (source animal id): 108 | ≤ 4
isolate (source animal id): 109 | ≤ 4
isolate (source animal id): 110 | ≤ 4
isolate (source animal id): 111 | > 32
isolate (source animal id): 112 | > 32
isolate (source animal id): 113 | ≤ 4
isolate (source animal id): 114 | ≤ 4
isolate (source animal id): 115 | > 32
isolate (source animal id): 116 | ≤ 4
isolate (source animal id): 117 | > 32
isolate (source animal id): 118 | ≤ 4
isolate (source animal id): 119 | ≤ 4
isolate (source animal id): 120 | > 32
isolate (source animal id): 121 | ≤ 4
isolate (source animal id): 122 | > 32
isolate (source animal id): 123 | ≤ 4
isolate (source animal id): 124 | ≤ 4
isolate (source animal id): 125 | ≤ 4
isolate (source animal id): 126 | ≤ 4
isolate (source animal id): 127 | ≤ 4
isolate (source animal id): 128 | ≤ 4
isolate (source animal id): 129 | ≤ 4
isolate (source animal id): 130 | ≤ 4
isolate (source animal id): 131 | ≤ 4
isolate (source animal id): 132 | > 32
isolate (source animal id): 133 | ≤ 4
isolate (source animal id): 134 | ≤ 4
isolate (source animal id): 135 | ≤ 4
isolate (source animal id): 136 | ≤ 4
isolate (source animal id): 137 | > 32
isolate (source animal id): 138 | ≤ 4
isolate (source animal id): 139 | ≤ 4
isolate (source animal id): 140 | ≤ 4
isolate (source animal id): 141 | > 32
isolate (source animal id): 142 | ≤ 4
isolate (source animal id): 143 | > 32
isolate (source animal id): 144 | ≤ 4
isolate (source animal id): 145 | > 32
isolate (source animal id): 146 | ≤ 4
isolate (source animal id): 147 | > 32
isolate (source animal id): 148 | ≤ 4
isolate (source animal id): 149 | ≤ 4
isolate (source animal id): 150 | > 32
isolate (source animal id): 151 | ≤ 4
isolate (source animal id): 152 | ≤ 4
isolate (source animal id): 153 | ≤ 4
isolate (source animal id): 154 | ≤ 4
isolate (source animal id): 155 | 32 (≈ 52.1 µM)
isolate (source animal id): 156 | > 32
isolate (source animal id): 157 | ≤ 4
isolate (source animal id): 158 | > 32
isolate (source animal id): 159 | ≤ 4
isolate (source animal id): 160 | > 32
isolate (source animal id): 161 | > 32
isolate (source animal id): 162 | ≤ 4
isolate (source animal id): 163 | ≤ 4
isolate (source animal id): 164 | ≤ 4
isolate (source animal id): 165 | 32 (≈ 52.1 µM)
isolate (source animal id): 166 | ≤ 4
isolate (source animal id): 167 | ≤ 4
isolate (source animal id): 168 | ≤ 4
isolate (source animal id): 169 | ≤ 4
isolate (source animal id): 170 | ≤ 4
isolate (source animal id): 171 | ≤ 4
isolate (source animal id): 172 | ≤ 4
isolate (source animal id): 173 | ≤ 4
isolate (source animal id): 174 | ≤ 4
isolate (source animal id): 175 | ≤ 4
isolate (source animal id): 176 | ≤ 4
isolate (source animal id): 177 | ≤ 4
isolate (source animal id): 178 | ≤ 4
isolate (source animal id): 179 | ≤ 4
isolate (source animal id): 180 | ≤ 4
isolate (source animal id): 181 | 32 (≈ 52.1 µM)
isolate (source animal id): 182 | ≤ 4
isolate (source animal id): 183 | ≤ 4
isolate (source animal id): 184 | ≤ 4
isolate (source animal id): 185 | ≤ 4
isolate (source animal id): 186 | ≤ 4
isolate (source animal id): 187 | 32 (≈ 52.1 µM)
isolate (source animal id): 188 | ≤ 4

Reference: the supplement of paper PMC8612539
